Data reported in patent US20240043394A1, “PROTEASOME ENHANCERS AND USES THEREOF” (Board of Trustees of Michigan State University, priority 2020, published 2024).

Columns and labels:
[1] = biological target: T1, purified human 20S proteasome (Homo sapiens, UniProt P25787+P60900); assay: 20S proteasome small peptide assay, combination of all three fluorogenic substrates (CT-L/Casp-L/T-L); type: biochemical; design: key to 20S proteasome activation, classed in words: compounds that exhibit a maximum fold enhancement of <2 fold (i.e. <200%) at a concentration >20 μM were considered inactive; details: for AC200 CT-L/Casp-L/T-L: concentration needed to double (200%) the rate of substrate degradation vs vehicle; for AC200 CT-L/Casp-L/T-L / Max Fold CT-L/Casp-L/T-L: three probes combined; for Max Fold CT-L/Casp-L/T-L: maximum fold rate increase vs vehicle control; for 20S proteasome activation, classed in words: concentrations tested 1.25 μM to 80 μM
T1 construct: purchased Boston Biochem or Life Sensors E-360 or ps020
Experimental: (§1) In vitro testing, 20S activation: The 20S proteasome activity of the compounds was assessed by utilizing the standard fluorogenic 7-amino-methylcoumarin (AMC) conjugated small peptide substrates that correspond to each of the catalytic sites in the 20S proteasome: chymotryptic-like site (Suc-LLVY-AMC), caspase-like site (Z-LLE-AMC), and trypsin-like site (Boc-LRR-AMC). When the small peptide substrate is degraded by the 20S proteasome, the AMC fluorophore is released and quantified to measure the rate of proteolytic cleavage. The 20S proteasome activity of the small molecules was evaluated at varying concentrations to determine the concentration at which the rate of proteolysis was doubled (i.e. the concentration needed to induce 200% activity) compared to the vehicle control (hereafter named as AC200). Concentrations ranging from 1.25 μM to 80 μM of each of compound were added to wells that contained 0.5 nM of purified human proteasome.
(§2) The overall enhancement of the rate of proteolysis of the 20S proteasome by a small molecule was first evaluated by adding a combination of all three peptide substrates to the treated sample. The combination of all three substrates represents a more accurate measurement of proteolytic activity of the proteasome because the catalytic sites housed in the β ring of the 20S proteasome communicate through allosteric interactions. For example, when a protein substrate encounters the chymotryptic-like site, a conformational change will occur activating the caspase-like site.^61 The individual contribution of each of the three catalytic sites was subsequently evaluated by adding only the corresponding peptide probes to gain insight into the contribution of each site on the overall enhanced proteolytic activity.
(§3) The fluorescent output, due to release of the AMC fluorophore, was then converted to the fold increase compared to a vehicle control sample, and the AC200 was calculated. […] (Table 1).
(§4) AC200 represents the concentration needed to double (e.g., 200%) the rate of substrate degradation compared to vehicle control. Max fold is the maximum fold rate increase compared to vehicle control.
(§5) 20S Proteasome Small Peptide Assay: Activity assays were carried out in a black flat/clear bottom 96 well plate with a […] volume. Concentrations of the potential activators, varying from 80 μM to 1.25 μM, were added to the well that contained 1 nM 20S proteasome purchased from either Boston Biochem (catalog number E-360) or Life Sensors (catalog number ps020), in a […] buffer at a pH of 7.8. This solution was left to incubate at 37° C. for 15 minutes. For the assay for the overall proteasome activity, 13.33 μM of each small peptide substrate is added. The 96 well plate is then placed into a plate reader (SpectraMax M5e spectrometer) and the plate reader will take a fluorescent reading every 5 minutes for an hour at 37° C. The enzymatic activity of the 20S proteasome is quantified using the fluorescent output at 380-460 nm, which is converted to max fold increase over the untreated sample. The activity of the individual catalytic assays is identical to the assay that assesses the overall activity of the 20S proteasome except only one small peptide substrate is added. To evaluate the activity of the CT-L and the Casp-L sites, 10 μM of the Suc-LLVY-AMC (Boston Biochem S-280) and Z-LLE-AMC (Boston Biochem S-230) were added, respectively. To evaluate the activity of the T-L site, 20 μM of the Boc-LRR-AMC (Boston Biochem S-300) is added.

[2] = biological target: T2, purified human 20S proteasome, Casp-L site (Homo sapiens, UniProt P25787+P60900); assay: 20S proteasome small peptide assay, Z-LLE-AMC caspase-like probe; type: biochemical; details: for AC200 Casp-L site: concentration needed to double rate vs vehicle; for Max Fold Casp-L site: maximum fold rate increase vs vehicle
T2 construct: purchased Boston Biochem or Life Sensors E-360 or ps020
Experimental: as §1, §2, §3, §4, §5

[3] = biological target: T3, purified human 20S proteasome, CT-L site (Homo sapiens, UniProt P25787+P60900); assay: 20S proteasome small peptide assay, Suc-LLVY-AMC chymotryptic-like probe; type: biochemical; details: for AC200 CT-L site: concentration needed to double rate vs vehicle; for Max Fold CT-L site: maximum fold rate increase vs vehicle
T3 construct: purchased Boston Biochem or Life Sensors E-360 or ps020
Experimental: as §1, §2, §3, §4, §5

[4] = biological target: T4, purified human 20S proteasome, T-L site (Homo sapiens, UniProt P25787+P60900); assay: 20S proteasome small peptide assay, Boc-LRR-AMC trypsin-like probe; type: biochemical; details: for AC200 T-L site: concentration needed to double rate vs vehicle; for Max Fold T-L site: maximum fold rate increase vs vehicle
T4 construct: purchased Boston Biochem or Life Sensors E-360 or ps020
Experimental: as §1, §2, §3, §4, §5

[5] = test system: A53T mutant α-synuclein in Hek-293T cells; assay: In cell degradation of A53T α-synuclein (Western blot); type: cell-based; details: 10 μM, 10 hours
Experimental: Error bars denote standard deviation. One-way ANOVA statistical analysis was used to determine statistical significance (ns=not significant, *p<0.05, **p<0.01, ***p<0.001, ****p<0.0001) (FIG. 4B).
Cellular efficacy: The A53T mutation of α-synuclein has been linked to early on-set familial Parkinson's disease and appears to oligomerize faster than the wild-type protein. […] Hek-293T cells were transiently transfected with an inducible Tet-One A53T mutant α-synuclein. The cells were treated with 100 ng/mL of doxycycline to induce the production of the A53T mutant. […] The cells were then lysed and the remaining A53T α-synuclein was visualized and quantified via Western Blotting (FIG. 4, n=4).
In cell degradation of A53T α-synuclein: In a 6 well plate, Hek293T cells were grown to 80% confluency and then transfected using Xfect biopolymer transfection system with the Tet-One A53T α-synuclein plasmid. 24 hours post transfection, 100 ng/mL of doxycycline was added to induce A53T α-synuclein expression. After 24 hours of protein induction, media was removed that contained the doxycycline and was washed with PBS. Media with the desired drug concentration or DMSO was added and treated for 10 hours. After the cells were treated with the test compounds or DMSO, the cells were scraped and the pelleted (300 g for 5 minutes). The supernatant was taken off and the cell pellet was washed with ice cold PBS and then lysed with RIPA buffer with added protease inhibitors. The cell lysate was incubated for 20 minutes on ice. The lysate was centrifuged for 15 minutes at 500 g and then the supernatant was collected. Concentrated SDS loading buffer was added and the samples were boiled for 10 minutes. The samples were then resolved on a 4-20% Tris-glycine SDS-PAGE gel and immunoblotted with mouse monoclonal anti α-synuclein IgG (1:2000) and anti-mouse HRP-linked IgG (1:2000). Blots were developed with ECL Westem reagent and imaged with an Azure Biosystems 3000 imager.

SMILES	AC200 CT-L/Casp-L/T-L [1]	Max Fold CT-L/Casp-L/T-L [1]	AC200 Casp-L site [2]	AC200 CT-L site [3]	Max Fold CT-L site [3]	AC200 T-L site [4]	Max Fold T-L site [4]	20S proteasome activation, classed in words [1]	Max Fold Casp-L site [2]	decrease of A53T mutant α-synuclein, in words [5]	potency relative to compound 7 (times less potent) ([1]; 20S proteasome activation, compared with electron poor counterpart 7)	decrease of accumulated A53T α-synuclein ([5]; normalized to vehicle)
Clc1ccc2c(c1)N(Cc1ccccc1)c1ccccc1S2 [Compound 1, 10-Benzyl-2-chloro-10H-phenothiazine]	1.5 µM	2 fold	>80 µM	2.8 µM	3 fold	3.1 µM	2 fold	–	–	–	–	–
CC(C)(C)OC(=O)c1ccc(CN2c3ccccc3Sc3ccc(Cl)cc32)cc1 [Compound 3, Tert-butyl 4-((2-chloro-10H-phenothiazin-10-yl)methyl)benzoate]	>80 µM	–	>80 µM	>80 µM	–	>80 µM	–	inactive	–	–	–	–
COc1cccc(CN2c3ccccc3Sc3ccc(Cl)cc32)c1 [Compound 4, 2-Chloro-10-(3-methoxybenzyl)-10H-phenothiazine]	1.5 µM	4 fold	1.3 µM	>80 µM	–	5.4 µM	2 fold	–	4 fold	–	–	–
COC(=O)c1cccc(CN2c3ccccc3Sc3ccc(Cl)cc32)c1 [Compound 5, Methyl 3-((2-chloro-10H-phenothiazin-10-yl)methyl)benzoate]	2.4 µM	6 fold	9.7 µM	2.4 µM	6 fold	1.9 µM	8 fold	–	4 fold	–	–	–
CC(=O)Oc1ccc(CN2c3ccccc3Sc3ccc(Cl)cc32)cc1 [Compound 6, 4-((2-Chloro-10H-phenothiazin-10-yl)methyl)phenyl acetate]	>80 µM	–	>80 µM	>80 µM	–	>80 µM	–	inactive	–	–	–	–
O=[N+]([O-])c1cccc(CN2c3ccccc3Sc3ccc(Cl)cc32)c1 [Compound 7, 2-Chloro-10-(3-nitrobenzyl)-10H-phenothiazine]	1.1 µM	8 fold	1.2 µM	1.1 µM	9 fold	1.6 µM	8 fold	–	12 fold	–	–	–
Oc1ccc(CN2c3ccccc3Sc3ccc(Cl)cc32)cc1 [Compound 8, 4-((2-Chloro-10H-phenothiazin-10-yl)methyl)phenol]	>80 µM	–	>80 µM	>80 µM	–	>80 µM	–	inactive	–	no decrease	–	–
Nc1cccc(CN2c3ccccc3Sc3ccc(Cl)cc32)c1 [Compound 9, 3-((2-Chloro-10H-phenothiazin-10-yl)methyl)aniline]	3.6 µM	8 fold	3.8 µM	6.5 µM	9 fold	9.2 µM	10 fold	–	10 fold	–	3 ×	–
N#CCCCCN1c2ccccc2Sc2ccc(Cl)cc21 [Compound 10, 5-(2-chloro-10H-phenothiazin-10-yl)pentanenitrile]	>80 µM	–	>80 µM	>80 µM	–	>80 µM	–	inactive	–	–	–	–
NC(=O)CCCCN1c2ccccc2Sc2ccc(Cl)cc21 [Compound 11, 5-(2-Chloro-10H-phenothiazin-10-yl)pentanamide]	>80 µM	–	>80 µM	>80 µM	–	>80 µM	–	inactive	–	–	–	–
NC(=O)C=CN1c2ccccc2Sc2ccc(Cl)cc21 [Compound 15, 3-(2-chloro-10H-phenothiazin-10-yl)propenamide]	>80 µM	–	>80 µM	>80 µM	–	>80 µM	–	inactive	–	–	–	–
CN(C)C(=O)CCN1c2ccccc2Sc2ccc(Cl)cc21 [Compound 16, 3-(2-chloro-10H-phenothiazin-10-yl)-N,N-dimethylpropanamide]	>80 µM	–	>80 µM	>80 µM	–	>80 µM	–	inactive	–	–	–	–
O=C(C=CN1c2ccccc2Sc2ccc(Cl)cc21)Nc1ccccc1 [Compound 17, 3-(2-chloro-10H-phenothiazin-10-yl)-N-phenylpropenamide]	40 µM	2.5 fold	>80 µM	>80 µM	–	80 µM	2 fold	–	–	–	–	–
CN(C(=O)CCN1c2ccccc2Sc2ccc(Cl)cc21)c1ccc(F)cc1 [Compound 18, 3-(2-chloro-10H-phenothiazin-10-yl)-N-(4-fluorophenyl)-N-methylpropanamide]	–	3 fold	–	–	–	–	–	–	–	–	–	–
CCOC(=O)[C@]1(c2ccccc2)N=C(c2ccc(OC)cc2)N(Cc2ccccc2)[C@@H]1c1ccc(NCc2ccccc2)cc1 [TCH-165, reference compound]	–	–	–	–	–	–	–	–	–	–	–	40%
